In ChEMBL document CHEMBL3217442, “Synthesis and bioevaluation of aryl hydroxamates distinguishing between NAD+ and ATP-dependent DNA ligases” (Medchemcomm, 2012):
In brackets after ≈: the same amount, converted by molar mass. Activity calls are given as the source filed them. The calls are words filed in the database; no cut-off is given here.

Assays:
Escherichia coli [1] = test: microbe, parasite or virus in culture; assay type: functional; conditions: GR501, 20 h
Escherichia coli [2] = test: microbe, parasite or virus in culture; assay type: functional; conditions: GR501, 20 h; remark: listed apart in the source
Escherichia coli [3] = tested on: Escherichia coli

SMILES | MIC (Escherichia coli [1]) | MIC (Escherichia coli [2]) | MIC (Escherichia coli [3])
O=C(NO)c1ccccc1OCC(O)Cn1cc(-c2ccccc2)nn1 (centres undefined) | 1 µg/mL (≈ 2.82 µM) | 18 µg/mL (≈ 50.8 µM) | 
C=CCOc1ccc(OCc2ccc(Br)cc2)cc1C(=O)NO |  | 800 µg/mL (≈ 2120 µM) | 
O=C(NO)c1ccc2ccccc2c1OCc1ccc(Cl)c(Cl)c1 |  | > 200 µg/mL | 
O=C(NO)c1ccccc1OCc1ccc(Cl)c(Cl)c1 |  |  | inactive
O=C(NO)c1ccccc1OCc1cccc(Cl)c1 |  |  | inactive
C=CCOc1ccc(OCc2cc(Cl)ccc2Cl)cc1C(=O)NO |  | 400 µg/mL (≈ 1090 µM) | 
C=CCOc1ccc(C(=O)NO)c(OCC=C)c1 |  | 400 µg/mL (≈ 1600 µM) | 
C=CCOc1ccc(OCc2ccccc2)cc1C(=O)NO |  | 800 µg/mL (≈ 2670 µM) | 
C=CCOc1cccc(C(=O)NO)c1OCC=C |  |  | inactive
C=CCOc1ccc(OCC=C)c(C(=O)NO)c1 |  | 150 µg/mL (≈ 602 µM) | 
C=CCOc1cc(OCc2ccc(Br)cc2)ccc1C(=O)NO |  | 800 µg/mL (≈ 2120 µM) | 
CCCCCCOc1c(C(=O)NO)ccc2ccccc12 |  | > 200 µg/mL | 
C=CCOc1cc(OCc2cc(Cl)ccc2Cl)ccc1C(=O)NO |  |  | inactive
C=CCOc1ccccc1C(=O)NO | 0.5 µg/mL (≈ 2.59 µM) | 10 µg/mL (≈ 51.8 µM) | 
C=CCOc1c(OCc2ccccc2)cccc1C(=O)NO |  |  | inactive
C#CCOc1ccc(OCC=C)c(C(=O)NO)c1 |  | 400 µg/mL (≈ 1620 µM) | 
O=C(NO)c1ccc2ccccc2c1OCc1cccc(Cl)c1 |  |  | inactive
